From ChEMBL document CHEMBL1909046, “DrugMatrix in vitro pharmacology data”

target: T1, D(4) dopamine receptor (Homo sapiens, UniProt P21917); experiment: DRUGMATRIX: Dopamine D4.2 radioligand binding (ligand: [3H] Spiperone); type: cell membranes, CHO-K1, Membrane; conditions: cho-k1; Not Active = under 50% inhibition at 10 µM
T1 sequence (P21917 whole entry): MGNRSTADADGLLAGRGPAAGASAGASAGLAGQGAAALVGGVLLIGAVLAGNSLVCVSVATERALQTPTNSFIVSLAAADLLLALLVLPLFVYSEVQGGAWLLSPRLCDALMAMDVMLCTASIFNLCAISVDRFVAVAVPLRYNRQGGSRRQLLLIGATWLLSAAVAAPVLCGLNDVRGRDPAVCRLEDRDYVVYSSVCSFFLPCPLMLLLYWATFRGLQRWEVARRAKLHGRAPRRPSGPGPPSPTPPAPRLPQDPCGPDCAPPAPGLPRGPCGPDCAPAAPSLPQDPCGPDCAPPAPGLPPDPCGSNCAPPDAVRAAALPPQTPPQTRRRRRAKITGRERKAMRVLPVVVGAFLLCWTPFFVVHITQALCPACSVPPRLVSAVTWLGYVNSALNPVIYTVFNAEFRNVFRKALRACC

| Compound | IC50 |
| --- | --- |
| NC(N)=Nc1nc(CSCCC(N)=NS(N)(=O)=O)cs1 [FAMOTIDINE] | Not Active |
| C[N+](C)(C)CCOP(=O)([O-])OC[C@H](O)CO | Not Active |
| COc1cc(/C=C/C(=O)O)ccc1O [FERULATE] | Not Active |
| NC(=O)NC(=O)Cc1ccccc1 [PHENACEMIDE] | Not Active |
| NC(=O)CN1CCCC1=O | Not Active |
| CC(C)Cn1cnc2c(N)nc3ccccc3c21 [IMIQUIMOD] | Not Active |
| CCO [ALCOHOL] | Not Active |
| C[C@H](C(=O)O)c1ccc2oc(-c3ccc(F)cc3)nc2c1 [FLUNOXAPROFEN] | Not Active |
| O=C(O)c1ccccc1 [BENZOIC ACID] | Not Active |
| CN(CCOc1ccc(C[C@H](Nc2ccccc2C(=O)c2ccccc2)C(=O)O)cc1)c1ccccn1 | Not Active |

target: D(1A) dopamine receptor (Homo sapiens, UniProt P21728); experiment: DRUGMATRIX: Dopamine D1 radioligand binding (ligand: [3H] SCH-23390); type: cell membranes, CHO, Membrane; conditions: cho; Not Active = under 50% inhibition at 10 µM
Sequence (P21728 whole entry): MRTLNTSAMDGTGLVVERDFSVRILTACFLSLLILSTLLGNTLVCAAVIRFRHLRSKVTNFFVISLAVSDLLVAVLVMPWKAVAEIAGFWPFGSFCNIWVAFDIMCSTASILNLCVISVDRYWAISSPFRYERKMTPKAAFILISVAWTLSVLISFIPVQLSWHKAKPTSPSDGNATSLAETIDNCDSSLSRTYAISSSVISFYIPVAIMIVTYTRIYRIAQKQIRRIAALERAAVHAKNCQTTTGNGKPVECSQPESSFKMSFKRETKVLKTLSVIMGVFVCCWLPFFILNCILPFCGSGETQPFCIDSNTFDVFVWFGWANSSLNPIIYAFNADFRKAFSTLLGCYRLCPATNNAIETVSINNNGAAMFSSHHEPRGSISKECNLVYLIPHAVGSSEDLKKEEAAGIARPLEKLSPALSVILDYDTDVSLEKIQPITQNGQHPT

| Compound | IC50 |
| --- | --- |
| NC(N)=Nc1nc(CSCCC(N)=NS(N)(=O)=O)cs1 [FAMOTIDINE] | Not Active |
| C[N+](C)(C)CCOP(=O)([O-])OC[C@H](O)CO | Not Active |
| COc1cc(/C=C/C(=O)O)ccc1O [FERULATE] | Not Active |
| NC(=O)NC(=O)Cc1ccccc1 [PHENACEMIDE] | Not Active |
| NC(=O)CN1CCCC1=O | Not Active |
| CC(C)Cn1cnc2c(N)nc3ccccc3c21 [IMIQUIMOD] | Not Active |
| CCO [ALCOHOL] | Not Active |
| C[C@H](C(=O)O)c1ccc2oc(-c3ccc(F)cc3)nc2c1 [FLUNOXAPROFEN] | Not Active |
| O=C(O)c1ccccc1 [BENZOIC ACID] | Not Active |
| CN(CCOc1ccc(C[C@H](Nc2ccccc2C(=O)c2ccccc2)C(=O)O)cc1)c1ccccn1 | Not Active |

target: Receptor tyrosine-protein kinase erbB-2 (Homo sapiens, UniProt P04626); type: cell-based; conditions: insect cells;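 note: inhibition of HER2 kinase enzyme activity, measured with Poly(Glu:Tyr) as the phosphorylation substrate; in other assays of this panel Not Active means under 50% inhibition at 10 µM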
Sequence (P04626 whole entry): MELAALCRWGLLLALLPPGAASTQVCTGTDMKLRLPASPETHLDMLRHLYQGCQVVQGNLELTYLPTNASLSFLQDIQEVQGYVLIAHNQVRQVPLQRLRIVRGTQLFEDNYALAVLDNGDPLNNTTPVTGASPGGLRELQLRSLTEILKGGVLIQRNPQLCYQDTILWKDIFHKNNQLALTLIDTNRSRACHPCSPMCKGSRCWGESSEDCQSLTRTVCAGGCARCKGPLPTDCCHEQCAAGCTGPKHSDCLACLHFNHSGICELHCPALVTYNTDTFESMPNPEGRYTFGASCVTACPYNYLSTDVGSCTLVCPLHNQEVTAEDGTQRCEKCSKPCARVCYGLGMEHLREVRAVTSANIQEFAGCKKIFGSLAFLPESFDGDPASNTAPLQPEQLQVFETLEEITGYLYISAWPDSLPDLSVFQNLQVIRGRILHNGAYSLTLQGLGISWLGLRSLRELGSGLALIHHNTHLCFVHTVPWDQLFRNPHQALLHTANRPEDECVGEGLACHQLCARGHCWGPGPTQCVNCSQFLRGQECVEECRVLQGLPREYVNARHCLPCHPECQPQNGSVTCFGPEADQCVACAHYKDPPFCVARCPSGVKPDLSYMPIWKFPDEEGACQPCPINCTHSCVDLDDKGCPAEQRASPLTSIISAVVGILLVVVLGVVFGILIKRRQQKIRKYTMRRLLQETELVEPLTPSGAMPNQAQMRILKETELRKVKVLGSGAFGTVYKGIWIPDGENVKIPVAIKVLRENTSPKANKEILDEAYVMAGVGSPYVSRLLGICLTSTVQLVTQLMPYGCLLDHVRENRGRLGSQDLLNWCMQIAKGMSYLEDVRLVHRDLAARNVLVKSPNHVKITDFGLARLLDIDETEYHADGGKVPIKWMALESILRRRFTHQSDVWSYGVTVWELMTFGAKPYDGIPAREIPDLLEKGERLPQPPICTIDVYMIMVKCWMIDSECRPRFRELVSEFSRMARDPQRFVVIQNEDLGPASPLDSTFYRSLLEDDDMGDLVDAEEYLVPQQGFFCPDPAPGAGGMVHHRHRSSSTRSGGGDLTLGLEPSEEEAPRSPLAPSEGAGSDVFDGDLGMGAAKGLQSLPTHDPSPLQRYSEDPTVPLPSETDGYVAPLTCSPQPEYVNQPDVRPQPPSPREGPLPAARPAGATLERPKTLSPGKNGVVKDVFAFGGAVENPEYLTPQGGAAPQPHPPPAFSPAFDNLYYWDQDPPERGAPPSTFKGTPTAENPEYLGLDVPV

| Compound | IC50 |
| --- | --- |
| NC(N)=Nc1nc(CSCCC(N)=NS(N)(=O)=O)cs1 [FAMOTIDINE] | Not Active |
| C[N+](C)(C)CCOP(=O)([O-])OC[C@H](O)CO | Not Active |
| COc1cc(/C=C/C(=O)O)ccc1O [FERULATE] | Not Active |
| NC(=O)NC(=O)Cc1ccccc1 [PHENACEMIDE] | Not Active |
| NC(=O)CN1CCCC1=O | Not Active |
| CC(C)Cn1cnc2c(N)nc3ccccc3c21 [IMIQUIMOD] | Not Active |
| CCO [ALCOHOL] | Not Active |
| C[C@H](C(=O)O)c1ccc2oc(-c3ccc(F)cc3)nc2c1 [FLUNOXAPROFEN] | Not Active |
| O=C(O)c1ccccc1 [BENZOIC ACID] | Not Active |
| CN(CCOc1ccc(C[C@H](Nc2ccccc2C(=O)c2ccccc2)C(=O)O)cc1)c1ccccn1 | Not Active |

target: T2, B2 bradykinin receptor (Homo sapiens, UniProt P30411); type: cell membranes, Membrane; conditions: chem-1; note: in other assays of this panel Not Active means under 50% inhibition at 10 µM
T2 sequence (P30411 whole entry): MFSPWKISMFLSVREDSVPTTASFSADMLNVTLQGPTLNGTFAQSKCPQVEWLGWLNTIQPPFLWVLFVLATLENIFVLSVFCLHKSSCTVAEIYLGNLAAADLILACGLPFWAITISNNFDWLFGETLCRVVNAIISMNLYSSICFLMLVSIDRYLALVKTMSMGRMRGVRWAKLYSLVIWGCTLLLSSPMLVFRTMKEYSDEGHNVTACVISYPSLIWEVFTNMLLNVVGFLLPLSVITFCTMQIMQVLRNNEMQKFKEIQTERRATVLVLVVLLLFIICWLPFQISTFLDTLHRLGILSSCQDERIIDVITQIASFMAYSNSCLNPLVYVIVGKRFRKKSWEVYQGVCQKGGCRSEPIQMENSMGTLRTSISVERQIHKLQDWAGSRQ

| Compound | IC50 |
| --- | --- |
| NC(N)=Nc1nc(CSCCC(N)=NS(N)(=O)=O)cs1 [FAMOTIDINE] | Not Active |
| C[N+](C)(C)CCOP(=O)([O-])OC[C@H](O)CO | Not Active |
| COc1cc(/C=C/C(=O)O)ccc1O [FERULATE] | Not Active |
| NC(=O)NC(=O)Cc1ccccc1 [PHENACEMIDE] | Not Active |
| NC(=O)CN1CCCC1=O | Not Active |
| CC(C)Cn1cnc2c(N)nc3ccccc3c21 [IMIQUIMOD] | Not Active |
| CCO [ALCOHOL] | Not Active |
| C[C@H](C(=O)O)c1ccc2oc(-c3ccc(F)cc3)nc2c1 [FLUNOXAPROFEN] | Not Active |
| O=C(O)c1ccccc1 [BENZOIC ACID] | Not Active |
| CN(CCOc1ccc(C[C@H](Nc2ccccc2C(=O)c2ccccc2)C(=O)O)cc1)c1ccccn1 | Not Active |

target: T3, Receptor-type tyrosine-protein phosphatase C (Homo sapiens, UniProt P08575); parameters: species or system Escherichia coli; conditions: not given;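 note: inhibition of CD45 enzyme activity measured using DiFMUP as substrate; in other assays of this panel Not Active means under 50% inhibition at 10 µM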
T3 sequence (P08575 whole entry): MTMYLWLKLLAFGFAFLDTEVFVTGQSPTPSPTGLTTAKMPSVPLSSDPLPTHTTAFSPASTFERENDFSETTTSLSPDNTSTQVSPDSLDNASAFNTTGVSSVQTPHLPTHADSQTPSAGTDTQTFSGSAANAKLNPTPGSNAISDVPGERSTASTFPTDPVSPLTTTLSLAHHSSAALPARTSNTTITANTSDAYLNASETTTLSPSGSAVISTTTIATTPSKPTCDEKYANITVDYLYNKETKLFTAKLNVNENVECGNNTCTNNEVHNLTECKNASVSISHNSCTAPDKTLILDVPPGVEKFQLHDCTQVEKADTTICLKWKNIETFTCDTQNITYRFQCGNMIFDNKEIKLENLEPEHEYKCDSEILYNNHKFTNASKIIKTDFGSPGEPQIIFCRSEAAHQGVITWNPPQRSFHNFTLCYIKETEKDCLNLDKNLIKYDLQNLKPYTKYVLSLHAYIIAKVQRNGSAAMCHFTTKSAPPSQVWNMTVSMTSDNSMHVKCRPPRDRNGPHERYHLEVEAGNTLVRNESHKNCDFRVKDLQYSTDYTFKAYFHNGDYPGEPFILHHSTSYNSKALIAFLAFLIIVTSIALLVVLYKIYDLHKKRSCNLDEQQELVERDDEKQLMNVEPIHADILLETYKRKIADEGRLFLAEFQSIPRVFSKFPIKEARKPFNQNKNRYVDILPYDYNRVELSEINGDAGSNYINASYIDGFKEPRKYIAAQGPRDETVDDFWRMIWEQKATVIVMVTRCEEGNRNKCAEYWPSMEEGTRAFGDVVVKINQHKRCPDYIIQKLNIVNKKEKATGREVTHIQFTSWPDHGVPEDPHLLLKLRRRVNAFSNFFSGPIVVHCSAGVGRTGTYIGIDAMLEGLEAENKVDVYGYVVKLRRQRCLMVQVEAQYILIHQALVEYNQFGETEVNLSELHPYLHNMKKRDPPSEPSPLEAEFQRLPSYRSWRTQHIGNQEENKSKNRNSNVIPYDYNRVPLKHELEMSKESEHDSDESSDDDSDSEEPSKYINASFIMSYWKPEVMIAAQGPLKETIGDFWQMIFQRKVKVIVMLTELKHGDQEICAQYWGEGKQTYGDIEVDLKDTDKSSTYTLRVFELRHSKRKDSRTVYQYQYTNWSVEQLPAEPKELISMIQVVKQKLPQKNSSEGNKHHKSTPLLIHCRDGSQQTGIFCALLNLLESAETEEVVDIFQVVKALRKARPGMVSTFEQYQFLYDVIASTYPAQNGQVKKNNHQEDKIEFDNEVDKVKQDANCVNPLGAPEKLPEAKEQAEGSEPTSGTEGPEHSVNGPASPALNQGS

| Compound | IC50 |
| --- | --- |
| NC(N)=Nc1nc(CSCCC(N)=NS(N)(=O)=O)cs1 [FAMOTIDINE] | Not Active |
| C[N+](C)(C)CCOP(=O)([O-])OC[C@H](O)CO | Not Active |
| COc1cc(/C=C/C(=O)O)ccc1O [FERULATE] | Not Active |
| NC(=O)NC(=O)Cc1ccccc1 [PHENACEMIDE] | Not Active |
| NC(=O)CN1CCCC1=O | Not Active |
| CC(C)Cn1cnc2c(N)nc3ccccc3c21 [IMIQUIMOD] | Not Active |
| CCO [ALCOHOL] | Not Active |
| C[C@H](C(=O)O)c1ccc2oc(-c3ccc(F)cc3)nc2c1 [FLUNOXAPROFEN] | Not Active |
| O=C(O)c1ccccc1 [BENZOIC ACID] | Not Active |
| CN(CCOc1ccc(C[C@H](Nc2ccccc2C(=O)c2ccccc2)C(=O)O)cc1)c1ccccn1 | Not Active |

target: T4, Muscarinic acetylcholine receptor M2 (Homo sapiens, UniProt P08172); type: cell membranes, CHO-K1, Membrane; conditions: cho-k1; note: in other assays of this panel Not Active means under 50% inhibition at 10 µM
T4 sequence (P08172 whole entry): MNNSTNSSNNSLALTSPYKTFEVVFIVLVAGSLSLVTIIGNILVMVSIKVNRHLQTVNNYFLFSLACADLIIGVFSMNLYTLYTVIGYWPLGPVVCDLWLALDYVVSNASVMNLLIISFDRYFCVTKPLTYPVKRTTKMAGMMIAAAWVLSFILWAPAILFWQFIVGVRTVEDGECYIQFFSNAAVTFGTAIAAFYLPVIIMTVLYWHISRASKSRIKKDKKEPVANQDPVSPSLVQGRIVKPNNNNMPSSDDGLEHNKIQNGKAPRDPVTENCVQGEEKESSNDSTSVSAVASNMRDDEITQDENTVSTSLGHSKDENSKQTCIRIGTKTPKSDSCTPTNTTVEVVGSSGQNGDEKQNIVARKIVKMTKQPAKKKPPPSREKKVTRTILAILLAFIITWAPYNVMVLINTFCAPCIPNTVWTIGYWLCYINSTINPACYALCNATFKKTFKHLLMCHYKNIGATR

| Compound | IC50 | Ki |
| --- | --- | --- |
| NC(N)=Nc1nc(CSCCC(N)=NS(N)(=O)=O)cs1 [FAMOTIDINE] | Not Active |  |
| C[N+](C)(C)CCOP(=O)([O-])OC[C@H](O)CO | Not Active |  |
| COc1cc(/C=C/C(=O)O)ccc1O [FERULATE] | Not Active |  |
| NC(=O)NC(=O)Cc1ccccc1 [PHENACEMIDE] | Not Active |  |
| NC(=O)CN1CCCC1=O | Not Active |  |
| CC(C)Cn1cnc2c(N)nc3ccccc3c21 [IMIQUIMOD] |  | Not Active |
| CCO [ALCOHOL] | Not Active |  |
| C[C@H](C(=O)O)c1ccc2oc(-c3ccc(F)cc3)nc2c1 [FLUNOXAPROFEN] | Not Active |  |
| O=C(O)c1ccccc1 [BENZOIC ACID] | Not Active |  |
| CN(CCOc1ccc(C[C@H](Nc2ccccc2C(=O)c2ccccc2)C(=O)O)cc1)c1ccccn1 | Not Active |  |

tested on: not listed separately; experiment: DRUGMATRIX: Sigma2 radioligand binding (ligand: [3H] Ifenprodil); type: cell membranes, Rattus norvegicus, Wistar, Brain, Membrane; conditions: Not Active = under 50% inhibition at 10 µM

| Compound | IC50 | Ki |
| --- | --- | --- |
| NC(N)=Nc1nc(CSCCC(N)=NS(N)(=O)=O)cs1 [FAMOTIDINE] | Not Active | Not Active |
| C[N+](C)(C)CCOP(=O)([O-])OC[C@H](O)CO | Not Active | Not Active |
| COc1cc(/C=C/C(=O)O)ccc1O [FERULATE] | Not Active | Not Active |
| NC(=O)NC(=O)Cc1ccccc1 [PHENACEMIDE] | Not Active | Not Active |
| NC(=O)CN1CCCC1=O | Not Active | Not Active |
| CC(C)Cn1cnc2c(N)nc3ccccc3c21 [IMIQUIMOD] | Not Active | Not Active |
| CCO [ALCOHOL] | Not Active | Not Active |
| C[C@H](C(=O)O)c1ccc2oc(-c3ccc(F)cc3)nc2c1 [FLUNOXAPROFEN] | Not Active | Not Active |
| O=C(O)c1ccccc1 [BENZOIC ACID] | Not Active | Not Active |
| CN(CCOc1ccc(C[C@H](Nc2ccccc2C(=O)c2ccccc2)C(=O)O)cc1)c1ccccn1 | Not Active | Not Active |
